Source: patent US20240300932A1, “N-PHENYLIMINE DERIVATIVE AND PREPARATION METHOD AND USE THEREOF” (Guizhou University, priority 2023, published 2024)

Experiments:
Test in all cases: Post-emergence herbicidal activity test (stem and leaf spray, pot culture)
Assay type in all cases: in vivo
Settings in all cases: 3 weeks after spraying
Abutilon theophrasti = system: Abutilon theophrasti
In short: (§1)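 Activity is given as a 0–5 grade of fresh weight growth control, scored three weeks after a single stem-and-leaf spray. Weeds in farmland loam were treated at the 2- to 3-leaf stage at 10, 5 and 2.5 g/mu, with methyl oleate added as synergist.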

Amaranthus retroflexus = system: Amaranthus retroflexus
In short: as §1

Portulaca oleracea = system: Portulaca oleracea
In short: as §1

Setaria viridis = system: Setaria viridis
In short: as §1

Echinochloa crusgalli = system: Echinochloa crusgalli
In short: as §1

Trifoliumre pensL. = system: Trifoliumre pensL.
In short: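 Rates of 10, 5 and 2.5 g/mu were applied in a single spray-tower treatment to 2–3-leaf plants, thinned to 10 per pot. Formulation: acetone solution, Tween 80, 1.5 L/ha methyl oleate synergist. Weed response assessed after 3 further greenhouse weeks; mean of three experiments.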

SMILES | Post-emergence herbicidal activity, A. theophrasti (grade) (Abutilon theophrasti; dosage 2.5 g/mu) | Post-emergence herbicidal activity, A. theophrasti (grade) (Abutilon theophrasti; dosage 5 g/mu) | Post-emergence herbicidal activity, A. theophrasti (grade) (Abutilon theophrasti; dosage 10 g/mu) | Post-emergence herbicidal activity, A. retroflexus (grade) (Amaranthus retroflexus; dosage 2.5 g/mu) | Post-emergence herbicidal activity, A. retroflexus (grade) (Amaranthus retroflexus; dosage 5 g/mu) | Post-emergence herbicidal activity, A. retroflexus (grade) (Amaranthus retroflexus; dosage 10 g/mu) | Post-emergence herbicidal activity, P. oleracea (grade) (Portulaca oleracea; dosage 2.5 g/mu) | Post-emergence herbicidal activity, P. oleracea (grade) (Portulaca oleracea; dosage 5 g/mu) | Post-emergence herbicidal activity, P. oleracea (grade) (Portulaca oleracea; dosage 10 g/mu) | Post-emergence herbicidal activity, S. viridis (grade) (Setaria viridis; dosage 2.5 g/mu) | Post-emergence herbicidal activity, S. viridis (grade) (Setaria viridis; dosage 5 g/mu) | Post-emergence herbicidal activity, S. viridis (grade) (Setaria viridis; dosage 10 g/mu) | Post-emergence herbicidal activity, E. crusgalli (grade) (Echinochloa crusgalli; dosage 2.5 g/mu) | Post-emergence herbicidal activity, E. crusgalli (grade) (Echinochloa crusgalli; dosage 5 g/mu) | Post-emergence herbicidal activity, E. crusgalli (grade) (Echinochloa crusgalli; dosage 10 g/mu) | Post-emergence herbicidal activity, Trifoliumre pensL. (grade) (Trifoliumre pensL.; dosage 2.5 g/mu) | Post-emergence herbicidal activity, Trifoliumre pensL. (grade) (Trifoliumre pensL.; dosage 5 g/mu) | Post-emergence herbicidal activity, Trifoliumre pensL. (grade) (Trifoliumre pensL.; dosage 10 g/mu)
O=C1C2=C(CCCC2)C(=O)N1c1cc(OCc2nc(-c3ccc(F)cc3F)no2)c(Cl)cc1F [Compound A6] | 5 (Grade 5: the growth control rate is greater than or equal to 85%) | 5 (Grade 5: the growth control rate is greater than or equal to 85%) | 5 (Grade 5: the growth control rate is greater than or equal to 85%) | 5 (Grade 5: the growth control rate is greater than or equal to 85%) | 5 (Grade 5: the growth control rate is greater than or equal to 85%) | 5 (Grade 5: the growth control rate is greater than or equal to 85%) | 4 (Grade 4: the growth control rate is greater than or equal to 60% and less than 85%) | 5 (Grade 5: the growth control rate is greater than or equal to 85%) | 5 (Grade 5: the growth control rate is greater than or equal to 85%) | 2 (Grade 2: the growth control rate is greater than or equal to 20% and less than 40%) | 3 (Grade 3: the growth control rate is greater than or equal to 40% and less than 60%) | 4 (Grade 4: the growth control rate is greater than or equal to 60% and less than 85%) | 1 (Grade 1: the growth control rate is greater than or equal to 5% and less than 20%) | 2 (Grade 2: the growth control rate is greater than or equal to 20% and less than 40%) | 3 (Grade 3: the growth control rate is greater than or equal to 40% and less than 60%) | 4 (Grade 4: the growth control rate is greater than or equal to 60% and less than 85%) | 5 (Grade 5: the growth control rate is greater than or equal to 85%) | 5 (Grade 5: the growth control rate is greater than or equal to 85%)
O=C1C2=C(CCCC2)C(=O)N1c1cc(OCc2nc(-c3ccc(Cl)nc3Cl)no2)c(Cl)cc1F [Compound A16] | 5 (Grade 5: the growth control rate is greater than or equal to 85%) | 5 (Grade 5: the growth control rate is greater than or equal to 85%) | 5 (Grade 5: the growth control rate is greater than or equal to 85%) | 5 (Grade 5: the growth control rate is greater than or equal to 85%) | 5 (Grade 5: the growth control rate is greater than or equal to 85%) | 5 (Grade 5: the growth control rate is greater than or equal to 85%) | 4 (Grade 4: the growth control rate is greater than or equal to 60% and less than 85%) | 5 (Grade 5: the growth control rate is greater than or equal to 85%) | 5 (Grade 5: the growth control rate is greater than or equal to 85%) | 2 (Grade 2: the growth control rate is greater than or equal to 20% and less than 40%) | 3 (Grade 3: the growth control rate is greater than or equal to 40% and less than 60%) | 4 (Grade 4: the growth control rate is greater than or equal to 60% and less than 85%) | 1 (Grade 1: the growth control rate is greater than or equal to 5% and less than 20%) | 2 (Grade 2: the growth control rate is greater than or equal to 20% and less than 40%) | 3 (Grade 3: the growth control rate is greater than or equal to 40% and less than 60%) | 4 (Grade 4: the growth control rate is greater than or equal to 60% and less than 85%) | 5 (Grade 5: the growth control rate is greater than or equal to 85%) | 5 (Grade 5: the growth control rate is greater than or equal to 85%)
O=C1C2=C(CCCC2)C(=O)N1c1cc(OCc2nc(-c3ccccc3Br)no2)c(Cl)cc1F [Compound A4] | 5 (Grade 5: the growth control rate is greater than or equal to 85%) | 5 (Grade 5: the growth control rate is greater than or equal to 85%) | 5 (Grade 5: the growth control rate is greater than or equal to 85%) | 5 (Grade 5: the growth control rate is greater than or equal to 85%) | 5 (Grade 5: the growth control rate is greater than or equal to 85%) | 5 (Grade 5: the growth control rate is greater than or equal to 85%) | 4 (Grade 4: the growth control rate is greater than or equal to 60% and less than 85%) | 5 (Grade 5: the growth control rate is greater than or equal to 85%) | 5 (Grade 5: the growth control rate is greater than or equal to 85%) | 2 (Grade 2: the growth control rate is greater than or equal to 20% and less than 40%) | 3 (Grade 3: the growth control rate is greater than or equal to 40% and less than 60%) | 4 (Grade 4: the growth control rate is greater than or equal to 60% and less than 85%) | 1 (Grade 1: the growth control rate is greater than or equal to 5% and less than 20%) | 2 (Grade 2: the growth control rate is greater than or equal to 20% and less than 40%) | 3 (Grade 3: the growth control rate is greater than or equal to 40% and less than 60%) | 4 (Grade 4: the growth control rate is greater than or equal to 60% and less than 85%) | 5 (Grade 5: the growth control rate is greater than or equal to 85%) | 5 (Grade 5: the growth control rate is greater than or equal to 85%)
Cc1cc(F)ccc1-c1noc(COc2cc(N3C(=O)C4=C(CCCC4)C3=O)c(F)cc2Cl)n1 [Compound A23] | 5 (Grade 5: the growth control rate is greater than or equal to 85%) | 5 (Grade 5: the growth control rate is greater than or equal to 85%) | 5 (Grade 5: the growth control rate is greater than or equal to 85%) | 5 (Grade 5: the growth control rate is greater than or equal to 85%) | 5 (Grade 5: the growth control rate is greater than or equal to 85%) | 5 (Grade 5: the growth control rate is greater than or equal to 85%) | 4 (Grade 4: the growth control rate is greater than or equal to 60% and less than 85%) | 5 (Grade 5: the growth control rate is greater than or equal to 85%) | 5 (Grade 5: the growth control rate is greater than or equal to 85%) | 2 (Grade 2: the growth control rate is greater than or equal to 20% and less than 40%) | 3 (Grade 3: the growth control rate is greater than or equal to 40% and less than 60%) | 4 (Grade 4: the growth control rate is greater than or equal to 60% and less than 85%) | 1 (Grade 1: the growth control rate is greater than or equal to 5% and less than 20%) | 2 (Grade 2: the growth control rate is greater than or equal to 20% and less than 40%) | 3 (Grade 3: the growth control rate is greater than or equal to 40% and less than 60%) | 4 (Grade 4: the growth control rate is greater than or equal to 60% and less than 85%) | 5 (Grade 5: the growth control rate is greater than or equal to 85%) | 5 (Grade 5: the growth control rate is greater than or equal to 85%)
